Measured values taken from patent US20070203118A1, “SUBSTITUTED TETRAHYDROISOQUINOLINES USED IN THE FORM OF MMP INHIBITORS, METHOD FOR THE PRODUCTION AND USE THEREOF IN THE FORM OF DRUGS” (SANOFI-AVENTIS DEUTSCHLAND GMBH, priority 2004, published 2007).

Experiments:
[1] = molecular target: T1, catalytic domain of human gelatinase-A (MMP-2) (Homo sapiens, UniProt P08253); test: Enzymatic activity of the catalytic domain of human gelatinase-A (MMP-2), fluorogenic substrate; format: biochemical
T1 construct: Determination of the Enzymatic Activity of the Catalytic Domain of Human Gelatinase-A (MMP-2); purchased INVITEK, Berlin
T1 sequence (P08253 110-660): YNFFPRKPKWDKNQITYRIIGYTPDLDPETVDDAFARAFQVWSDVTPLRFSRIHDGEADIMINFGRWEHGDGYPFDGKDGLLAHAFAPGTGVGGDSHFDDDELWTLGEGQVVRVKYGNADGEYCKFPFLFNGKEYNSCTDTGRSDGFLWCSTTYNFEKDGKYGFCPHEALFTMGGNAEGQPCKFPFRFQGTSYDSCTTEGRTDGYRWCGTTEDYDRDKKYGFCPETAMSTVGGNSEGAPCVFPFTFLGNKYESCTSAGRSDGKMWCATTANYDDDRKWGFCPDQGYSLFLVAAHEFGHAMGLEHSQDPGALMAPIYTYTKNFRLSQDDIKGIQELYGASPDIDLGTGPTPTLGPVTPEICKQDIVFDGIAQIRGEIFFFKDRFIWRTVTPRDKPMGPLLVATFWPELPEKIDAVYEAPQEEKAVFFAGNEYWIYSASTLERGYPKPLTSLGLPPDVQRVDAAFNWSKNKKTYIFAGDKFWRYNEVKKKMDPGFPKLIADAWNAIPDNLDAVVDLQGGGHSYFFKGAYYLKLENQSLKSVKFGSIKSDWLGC
Protocol: Determination of the Enzymatic Activity of the Catalytic Domain of Human Gelatinase-A (MMP-2)
Activation of the proenzyme: 2 parts by volume of proenzyme were incubated with 1 part by volume of APMA solution at 37° C. for 0.5 hours. The APMA solution was prepared from a 10 mmol/l p-aminophenylmercuric acetate solution in 0.1 mmol/l NaOH by dilution with 3 parts by volume of Tris/HCl buffer pH 7.5 (see below). The pH was adjusted to between 7.0 and 7.5 by adding 1 mmol/l HCl. After activation of the enzyme it was diluted with the Tris/HCl buffer to a concentration of 0.83 μg/ml.
The enzymic activity was measured by incubating 10 μl of enzyme solution with 10 μl of a 3% strength (v/v) buffered dimethyl sulfoxide solution (reaction 1) for 15 minutes. The enzyme inhibitor activity was measured by incubating 10 μl of enzyme solution with 10 μl of a 3% strength (v/v) buffered dimethyl sulfoxide solution which contained the enzyme inhibitor (reaction 2).
The enzymic reaction both in the case of reaction 1 and in the case of reaction 2 was followed after addition of 10 μl of a 3% strength (v/v) aqueous dimethyl sulfoxide solution which contained 0.3 mmol/l of the substrate by fluorescence spectroscopy (328 nm (extinction)/393 nm (emission)).
The enzymic activity has been presented as increase in extinction/minute.
The effect of the inhibitor was calculated as percentage inhibition by the following formula: % inhibition=100−[(increase in extinction/minute in reaction 2)/(increase in extinction/minute in reaction 1)×100].
The IC50, which is the concentration of inhibitor which is necessary for 50% inhibition of the enzymic activity, was determined graphically by plotting the percentage inhibitions at various inhibitor concentrations.
The buffer solution contained 0.05% Brij (Sigma, Deisenhofen, Germany) and 0.1 mol/l Tris/HCl, 0.1 mol/l NaCl, 0.01 mol/l CaCl2 (pH=7.5). The enzyme solution contained […] of the enzyme domain. The substrate solution contained 0.3 mmol/l of the fluorogenic substrate (7-methoxycoumarin-4-yl)acetyl-Pro-Leu-Gly-Leu-3-(2′,4′-dinitrophenyl)-L-2,3-diaminopropionyl-Ala-Arg-NH2 (Bachem, Heidelberg, Germany).

[2] = molecular target: T2, neutrophil collagenase (MMP-8) (Homo sapiens, UniProt P22894); test: Enzymatic activity of the catalytic domain of neutrophil collagenase (MMP-8), fluorogenic substrate; format: biochemical
T2 construct: Catalytic Domain of Human Stromelysin (MMP-3) and of Neutrophil Collagenase (MMP-8); made in house
Protocol: Preparation and Determination of the Enzymatic Activity of the Catalytic Domain of Human Stromelysin (MMP-3) and of Neutrophil Collagenase (MMP-8)
The two enzymes stromelysin (MMP-3) and neutrophil collagenase (MMP-8) were prepared by the method of Ye et al. (Biochemistry; 31 (1992) pages 11 231-11 235). The enzymic activity or the effect of the enzyme inhibitor was measured by incubating 10 μl of enzyme solution with 10 μl of a 3% strength (v/v) buffered dimethyl sulfoxide solution which contained the enzyme inhibitor where appropriate, for 15 minutes. After addition of 10 μl of a 3% strength (v/v) aqueous dimethyl sulfoxide solution which contained 1 mmol/l of the substrate, the enzymic reaction was followed by fluorescence spectroscopy (328 nm (ex)/393 nm(em)). The enzymic activity is presented as increase in extinction/minute.
The IC50 values listed in Table 4 were determined as the inhibitor concentrations leading in each case to 50% inhibition of the enzyme. The buffer solution contained 0.05% Brij (Sigma, Deisenhofen, Germany) and 0.1 mol/l Tris/HCl, 0.1 mol/l NaCl, 0.01 mol/l CaCl2 and 0.1 mol/l piperazine-N,N′-bis[2-ethanesulfonic acid] (pH=7.5).
The MMP-3 enzyme solution contained 2.3 μg/ml and the MMP-8 enzyme solution 0.6 μg/ml of one of the enzyme domains prepared by the method of Ye et al. The substrate solution contained 1 mmol/l of the fluorogenic substrate (7-methoxycoumarin-4-yl)acetyl-Pro-Leu-Gly-Leu-3-(2′,4′-dinitrophenyl)-L-2,3-diaminopropionyl-Ala-Arg-NH2 (Bachem, Heidelberg, Germany).

T2 sequence (P22894 100-262 limits assumed): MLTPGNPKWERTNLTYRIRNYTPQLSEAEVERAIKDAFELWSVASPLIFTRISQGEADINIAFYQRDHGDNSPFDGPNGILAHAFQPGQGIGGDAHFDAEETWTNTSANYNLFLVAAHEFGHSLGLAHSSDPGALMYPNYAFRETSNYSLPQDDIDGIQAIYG

“2-{2-[4-(4-fluorophenoxy)phenyl]ethanesulfonyl}-1,2,3,4-tetrahydroisoquinoline-1-hydroxycarboxamide [Compound 20]” showed an IC50 [1] of 2 nM and an IC50 [2] of 2.2 nM.

In the case of O=C(NO)[C@H]1c2ccccc2CCN1S(=O)(=O)c1ccc(Oc2ccc(Cl)cc2)cc1 [Compound 9], the IC50 [1] is reported as 2 nM and the IC50 [2] is reported as 2.2 nM.

O=C(NO)[C@H]1c2ccccc2CCN1S(=O)(=O)c1ccc(Oc2ccncc2)cc1 [Compound 11] was tested, and the IC50 [1] was 2.3 nM and the IC50 [2] was 3 nM.

COc1cc2c(cc1OC)[C@@H](C(=O)NO)N(S(=O)(=O)c1ccc(-c3ccc(Cl)cc3)cc1)CC2 [Compound 15] gave an IC50 [1] of 1 nM and an IC50 [2] of 2 nM.

COc1ccc(F)c2c1[C@H](C(=O)NO)N(S(=O)(=O)c1ccc(-c3ccc(Cl)cc3)cc1)CC2 [Compound 18] showed an IC50 [1] of 4.5 nM and an IC50 [2] of 14 nM.

Work on O=C(NO)[C@H]1c2ccccc2CCN1S(=O)(=O)c1ccc(Oc2ccc(C(F)(F)F)cc2)cc1 [Compound 21, (R)-2-[4-(4-trifluoromethylphenoxy)benzenesulfonyl]-1,2,3,4-tetrahydro-isoquinoline-1-hydroxycarboxamide] yielded an IC50 [1] of 2.2 nM and an IC50 [2] of 3.2 nM.

O=C(NO)[C@H]1c2ccccc2CCN1S(=O)(=O)c1ccc(Oc2ccc(OCC(F)(F)F)cc2)cc1 [Compound 22] showed an IC50 [1] of 25 nM and an IC50 [2] of 110 nM.

Compound O=C(NO)[C@H]1c2ccccc2CCN1S(=O)(=O)c1ccc(Oc2ccc(OC(F)(F)F)cc2)nc1 [Compound 43, (R)-2-[6-(4-trifluoromethoxyphenoxy)pyridine-3-sulfonyl]-1,2,3,4-tetrahydro-isoquinoline-1-hydroxycarboxamide] has an IC50 [1] of 23 nM and an IC50 [2] of 30 nM.

With O=C(NO)[C@H]1c2ccccc2CCN1S(=O)(=O)c1ccc(Oc2ccc(Cl)cc2)nc1 [Compound 45, (R)-2-[6-(4-chlorophenoxy)pyridine-3-sulfonyl]-1,2,3,4-tetrahydroisoquinoline-1-hydroxycarboxamide] the IC50 [1] was 2 nM and the IC50 [2] was 9 nM.

In the case of “(R)-4-(1-hydroxycarbamoyl-3,4-dihydro-1H-isoquinoline-2-sulfonyl)phenyl benzoate [Compound 48]”, the IC50 [1] is reported as 2 nM and the IC50 [2] is reported as 4 nM.
